{"source": "the supplement of paper PMC10307832", "test_in_all_cases": "relative viability (nuclei count vs DMSO), 5 days (fraction); higher = more cells survive", "key": {"Palbociclib + Luminespib": {"compound": "CC(=O)c1c(C)c2cnc(Nc3ccc(N4CCNCC4)cn3)nc2n(C2CCCC2)c1=O [Palbociclib] + CCNC(=O)c1noc(-c2cc(C(C)C)c(O)cc2O)c1-c1ccc(CN2CCOCC2)cc1 [Luminespib] (partner 0.01 µM)", "method_in_brief": "(§1)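 For relative viability, nuclei counts in treated wells were divided by those in vehicle wells. Lung cancer cell lines had been pin-tool dosed in 1536-well plates the day after seeding and cultured for 5 days, then fixed and stained in one step (final 0.05% Triton X-100, 1% formaldehyde, 1 ug/ml Hoechst) and imaged at 4×. Doses were one drug alone or a fixed anchor-drug dose plus five library-drug doses (not always all listed) in √10 steps, and values are duplicate-plate medians.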"}, "Palbociclib + Tozasertib": {"compound": "CC(=O)c1c(C)c2cnc(Nc3ccc(N4CCNCC4)cn3)nc2n(C2CCCC2)c1=O [Palbociclib] + Cc1cc(Nc2cc(N3CCN(C)CC3)nc(Sc3ccc(NC(=O)C4CC4)cc3)n2)n[nH]1 [Tozasertib] (partner 0.1 µM)", "method_in_brief": "as §1"}, "Palbociclib + OSI-027": {"compound": "CC(=O)c1c(C)c2cnc(Nc3ccc(N4CCNCC4)cn3)nc2n(C2CCCC2)c1=O [Palbociclib] + COc1cccc2cc(-c3nc([C@H]4CC[C@H](C(=O)O)CC4)n4ncnc(N)c34)[nH]c12 [OSI-027] (partner 0.5 µM)", "method_in_brief": "as §1"}, "Palbociclib + Phenformin": {"compound": "CC(=O)c1c(C)c2cnc(Nc3ccc(N4CCNCC4)cn3)nc2n(C2CCCC2)c1=O [Palbociclib] + N=C(N)NC(=N)NCCc1ccccc1 [Phenformin] (partner 250 µM)", "method_in_brief": "as §1"}, "Palbociclib + Dasatinib": {"compound": "CC(=O)c1c(C)c2cnc(Nc3ccc(N4CCNCC4)cn3)nc2n(C2CCCC2)c1=O [Palbociclib] + Cc1nc(Nc2ncc(C(=O)Nc3c(C)cccc3Cl)s2)cc(N2CCN(CCO)CC2)n1 [Dasatinib] (partner 0.075 µM)", "method_in_brief": "as §1"}, "Palbociclib + Foretinib": {"compound": "CC(=O)c1c(C)c2cnc(Nc3ccc(N4CCNCC4)cn3)nc2n(C2CCCC2)c1=O [Palbociclib] + COc1cc2c(Oc3ccc(NC(=O)C4(C(=O)Nc5ccc(F)cc5)CC4)cc3F)ccnc2cc1OCCCN1CCOCC1 [Foretinib] (partner 0.25 µM)", "method_in_brief": "as §1"}, "Palbociclib": {"compound": "CC(=O)c1c(C)c2cnc(Nc3ccc(N4CCNCC4)cn3)nc2n(C2CCCC2)c1=O [Palbociclib]", "method_in_brief": "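A plate was accepted only when its control CV was below 25% and the cells had doubled at least once. Viability is defined from nuclear counts as treated wells divided by vehicle wells, with the median taken across plates. That median covers lung cancer cell lines grown in 1536-well plates, dosed by pinning at five √10-spaced library-drug concentrations, and counted in MetaXpress from 4× Hoechst images after 5 days.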"}, "Palbociclib + Vorinostat": {"compound": "CC(=O)c1c(C)c2cnc(Nc3ccc(N4CCNCC4)cn3)nc2n(C2CCCC2)c1=O [Palbociclib] + O=C(CCCCCCC(=O)Nc1ccccc1)NO [Vorinostat] (partner 1 µM)", "method_in_brief": "as §1"}, "Palbociclib + Decitabine": {"compound": "CC(=O)c1c(C)c2cnc(Nc3ccc(N4CCNCC4)cn3)nc2n(C2CCCC2)c1=O [Palbociclib] + Nc1ncn([C@H]2C[C@H](O)[C@@H](CO)O2)c(=O)n1 [Decitabine] (partner 2 µM)", "method_in_brief": "as §1"}, "Palbociclib + AZD7762": {"compound": "CC(=O)c1c(C)c2cnc(Nc3ccc(N4CCNCC4)cn3)nc2n(C2CCCC2)c1=O [Palbociclib] + NC(=O)Nc1cc(-c2cccc(F)c2)sc1C(=O)N[C@H]1CCCNC1 [AZD7762] (partner 0.2 µM)", "method_in_brief": "as §1"}, "Palbociclib + Trametinib": {"compound": "CC(=O)c1c(C)c2cnc(Nc3ccc(N4CCNCC4)cn3)nc2n(C2CCCC2)c1=O [Palbociclib] + CC(=O)Nc1cccc(-n2c(=O)n(C3CC3)c(=O)c3c(Nc4ccc(I)cc4F)n(C)c(=O)c(C)c32)c1 [Trametinib] (partner 0.02 µM)", "method_in_brief": "as §1"}, "Palbociclib + Pemetrexed": {"compound": "CC(=O)c1c(C)c2cnc(Nc3ccc(N4CCNCC4)cn3)nc2n(C2CCCC2)c1=O [Palbociclib] + Nc1nc2[nH]cc(CCc3ccc(C(=O)N[C@@H](CCC(=O)O)C(=O)O)cc3)c2c(=O)[nH]1 [Pemetrexed] (partner 0.2 µM)", "method_in_brief": "as §1"}, "Palbociclib + Olaparib": {"compound": "CC(=O)c1c(C)c2cnc(Nc3ccc(N4CCNCC4)cn3)nc2n(C2CCCC2)c1=O [Palbociclib] + O=C(c1cc(Cc2n[nH]c(=O)c3ccccc23)ccc1F)N1CCN(C(=O)C2CC2)CC1 [Olaparib] (partner 8 µM)", "method_in_brief": "as §1"}}}
{"cell line": "NCI-H1623", "values": [{"measurement": "relative viability", "setting": "Palbociclib + Luminespib; first compound 0.01 µM", "value": 0.496}, {"measurement": "relative viability", "setting": "Palbociclib + Luminespib; first compound 0.03162 µM", "value": 0.473}, {"measurement": "relative viability", "setting": "Palbociclib + Luminespib; first compound 0.1 µM", "value": 0.587}, {"measurement": "relative viability", "setting": "Palbociclib + Luminespib; first compound 0.3162 µM", "value": 0.463}, {"measurement": "relative viability", "setting": "Palbociclib + Luminespib; first compound 1 µM", "value": 0.463}, {"measurement": "relative viability", "setting": "Palbociclib + Tozasertib; first compound 0.01 µM", "value": 0.481}, {"measurement": "relative viability", "setting": "Palbociclib + Tozasertib; first compound 0.03162 µM", "value": 0.48}, {"measurement": "relative viability", "setting": "Palbociclib + Tozasertib; first compound 0.1 µM", "value": 0.476}, {"measurement": "relative viability", "setting": "Palbociclib + Tozasertib; first compound 0.3162 µM", "value": 0.417}, {"measurement": "relative viability", "setting": "Palbociclib + Tozasertib; first compound 1 µM", "value": 0.37}, {"measurement": "relative viability", "setting": "Palbociclib + OSI-027; first compound 0.01 µM", "value": 0.488}, {"measurement": "relative viability", "setting": "Palbociclib + OSI-027; first compound 0.03162 µM", "value": 0.512}, {"measurement": "relative viability", "setting": "Palbociclib + OSI-027; first compound 0.1 µM", "value": 0.448}, {"measurement": "relative viability", "setting": "Palbociclib + OSI-027; first compound 0.3162 µM", "value": 0.398}, {"measurement": "relative viability", "setting": "Palbociclib + OSI-027; first compound 1 µM", "value": 0.364}, {"measurement": "relative viability", "setting": "Palbociclib + Phenformin; first compound 0.01 µM", "value": 0.602}, {"measurement": "relative viability", "setting": "Palbociclib + Phenformin; first compound 0.03162 µM", "value": 0.534}, {"measurement": "relative viability", "setting": "Palbociclib + Phenformin; first compound 0.1 µM", "value": 0.628}, {"measurement": "relative viability", "setting": "Palbociclib + Phenformin; first compound 0.3162 µM", "value": 0.615}, {"measurement": "relative viability", "setting": "Palbociclib + Phenformin; first compound 1 µM", "value": 0.496}, {"measurement": "relative viability", "setting": "Palbociclib + Dasatinib; first compound 0.01 µM", "value": 0.551}, {"measurement": "relative viability", "setting": "Palbociclib + Dasatinib; first compound 0.03162 µM", "value": 0.473}, {"measurement": "relative viability", "setting": "Palbociclib + Dasatinib; first compound 0.1 µM", "value": 0.517}, {"measurement": "relative viability", "setting": "Palbociclib + Dasatinib; first compound 0.3162 µM", "value": 0.546}, {"measurement": "relative viability", "setting": "Palbociclib + Dasatinib; first compound 1 µM", "value": 0.453}, {"measurement": "relative viability", "setting": "Palbociclib + Foretinib; first compound 0.01 µM", "value": 0.97}, {"measurement": "relative viability", "setting": "Palbociclib + Foretinib; first compound 0.03162 µM", "value": 0.741}, {"measurement": "relative viability", "setting": "Palbociclib + Foretinib; first compound 0.1 µM", "value": 0.867}, {"measurement": "relative viability", "setting": "Palbociclib + Foretinib; first compound 0.3162 µM", "value": 0.994}, {"measurement": "relative viability", "setting": "Palbociclib + Foretinib; first compound 1 µM", "value": 0.64}, {"measurement": "relative viability", "setting": "Palbociclib; 0.01 µM", "value": 1.16}, {"measurement": "relative viability", "setting": "Palbociclib; 0.03162 µM", "value": 0.885}, {"measurement": "relative viability", "setting": "Palbociclib; 0.1 µM", "value": 0.918}, {"measurement": "relative viability", "setting": "Palbociclib; 0.3162 µM", "value": 0.951}, {"measurement": "relative viability", "setting": "Palbociclib; 1 µM", "value": 0.686}]}
{"cell line": "NCI-H1648", "values": [{"measurement": "relative viability", "setting": "Palbociclib + Vorinostat; first compound 0.01 µM", "value": 0.869}, {"measurement": "relative viability", "setting": "Palbociclib + Vorinostat; first compound 0.03162 µM", "value": 0.426}, {"measurement": "relative viability", "setting": "Palbociclib + Vorinostat; first compound 0.1 µM", "value": 0.386}, {"measurement": "relative viability", "setting": "Palbociclib + Vorinostat; first compound 0.3162 µM", "value": 0.388}, {"measurement": "relative viability", "setting": "Palbociclib + Vorinostat; first compound 1 µM", "value": 0.398}, {"measurement": "relative viability", "setting": "Palbociclib + Decitabine; first compound 0.01 µM", "value": 0.651}, {"measurement": "relative viability", "setting": "Palbociclib + Decitabine; first compound 0.03162 µM", "value": 0.376}, {"measurement": "relative viability", "setting": "Palbociclib + Decitabine; first compound 0.1 µM", "value": 0.445}, {"measurement": "relative viability", "setting": "Palbociclib + Decitabine; first compound 0.3162 µM", "value": 0.511}, {"measurement": "relative viability", "setting": "Palbociclib + Decitabine; first compound 1 µM", "value": 0.339}, {"measurement": "relative viability", "setting": "Palbociclib + AZD7762; first compound 0.01 µM", "value": 0.841}, {"measurement": "relative viability", "setting": "Palbociclib + AZD7762; first compound 0.03162 µM", "value": 0.436}, {"measurement": "relative viability", "setting": "Palbociclib + AZD7762; first compound 0.1 µM", "value": 0.598}, {"measurement": "relative viability", "setting": "Palbociclib + AZD7762; first compound 0.3162 µM", "value": 0.657}, {"measurement": "relative viability", "setting": "Palbociclib + AZD7762; first compound 1 µM", "value": 0.56}, {"measurement": "relative viability", "setting": "Palbociclib + Trametinib; first compound 0.01 µM", "value": 0.657}, {"measurement": "relative viability", "setting": "Palbociclib + Trametinib; first compound 0.03162 µM", "value": 0.364}, {"measurement": "relative viability", "setting": "Palbociclib + Trametinib; first compound 0.1 µM", "value": 0.357}, {"measurement": "relative viability", "setting": "Palbociclib + Trametinib; first compound 0.3162 µM", "value": 0.45}, {"measurement": "relative viability", "setting": "Palbociclib + Trametinib; first compound 1 µM", "value": 0.406}, {"measurement": "relative viability", "setting": "Palbociclib + Pemetrexed; first compound 0.01 µM", "value": 0.76}, {"measurement": "relative viability", "setting": "Palbociclib + Pemetrexed; first compound 0.03162 µM", "value": 0.549}, {"measurement": "relative viability", "setting": "Palbociclib + Pemetrexed; first compound 0.1 µM", "value": 0.562}, {"measurement": "relative viability", "setting": "Palbociclib + Pemetrexed; first compound 0.3162 µM", "value": 0.582}, {"measurement": "relative viability", "setting": "Palbociclib + Pemetrexed; first compound 1 µM", "value": 0.411}, {"measurement": "relative viability", "setting": "Palbociclib + Tozasertib; first compound 0.01 µM", "value": 0.585}, {"measurement": "relative viability", "setting": "Palbociclib + Tozasertib; first compound 0.1 µM", "value": 0.405}, {"measurement": "relative viability", "setting": "Palbociclib + Tozasertib; first compound 0.3162 µM", "value": 0.526}, {"measurement": "relative viability", "setting": "Palbociclib + Tozasertib; first compound 1 µM", "value": 0.175}, {"measurement": "relative viability", "setting": "Palbociclib + OSI-027; first compound 0.01 µM", "value": 0.264}, {"measurement": "relative viability", "setting": "Palbociclib + OSI-027; first compound 0.1 µM", "value": 0.256}, {"measurement": "relative viability", "setting": "Palbociclib + OSI-027; first compound 0.3162 µM", "value": 0.27}, {"measurement": "relative viability", "setting": "Palbociclib + OSI-027; first compound 1 µM", "value": 0.251}, {"measurement": "relative viability", "setting": "Palbociclib + Olaparib; first compound 0.01 µM", "value": 0.679}, {"measurement": "relative viability", "setting": "Palbociclib + Olaparib; first compound 0.03162 µM", "value": 0.71}, {"measurement": "relative viability", "setting": "Palbociclib + Olaparib; first compound 0.1 µM", "value": 0.518}, {"measurement": "relative viability", "setting": "Palbociclib + Olaparib; first compound 0.3162 µM", "value": 0.587}, {"measurement": "relative viability", "setting": "Palbociclib + Olaparib; first compound 1 µM", "value": 0.37}, {"measurement": "relative viability", "setting": "Palbociclib; 0.01 µM", "value": 1.12}, {"measurement": "relative viability", "setting": "Palbociclib; 0.03162 µM", "value": 0.451}, {"measurement": "relative viability", "setting": "Palbociclib; 0.1 µM", "value": 0.667}, {"measurement": "relative viability", "setting": "Palbociclib; 0.3162 µM", "value": 0.764}, {"measurement": "relative viability", "setting": "Palbociclib; 0.5 µM, anchor plate", "value": 0.284}, {"measurement": "relative viability", "setting": "Palbociclib; 1 µM", "value": 0.336}]}
